From patent US10577363B2, “Substituted piperidine compounds” (EPIZYME, INC., priority 2014, dated 2020) come the findings set out here.

The target in assay [1] is T1, SMYD3 (Homo sapiens (Human), UniProt Q9H7B4). Description: SMYD3 cell assay (Trimethyl-MEKK2 In-Cell Western in 293T/17 cells). Type of assay: cell-based. Conditions: read-out: SMYD3 Cell IC50*. In outline:
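In-Cell Western ratio of trimethyl-Lys260 MEKK2 to anti-flag signal; percent inhibition from DMSO and maximum-inhibition controls, IC50 by non-linear regression, triplicates.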

Assay [2] has as its target T1, SMYD3. Description: SMYD3 biochemical assay (SPA, 3H-SAM methylation of MEKK2 protein substrate). The note with it: read-out: SMYD3 Biochem IC50*. In outline: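 Tritium incorporation into GST-MEKK2 is counted by scintillation proximity after citric acid bead capture. Native human SMYD3 is preincubated with test compound for 30 min at room temperature at pH 8.0 (Tris-Cl, TCEP, BSG, Tween 20) before 3H-SAM and substrate are added; cold SAM at 100 uM final stops turnover.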

T1 sequence (Q9H7B4 whole entry): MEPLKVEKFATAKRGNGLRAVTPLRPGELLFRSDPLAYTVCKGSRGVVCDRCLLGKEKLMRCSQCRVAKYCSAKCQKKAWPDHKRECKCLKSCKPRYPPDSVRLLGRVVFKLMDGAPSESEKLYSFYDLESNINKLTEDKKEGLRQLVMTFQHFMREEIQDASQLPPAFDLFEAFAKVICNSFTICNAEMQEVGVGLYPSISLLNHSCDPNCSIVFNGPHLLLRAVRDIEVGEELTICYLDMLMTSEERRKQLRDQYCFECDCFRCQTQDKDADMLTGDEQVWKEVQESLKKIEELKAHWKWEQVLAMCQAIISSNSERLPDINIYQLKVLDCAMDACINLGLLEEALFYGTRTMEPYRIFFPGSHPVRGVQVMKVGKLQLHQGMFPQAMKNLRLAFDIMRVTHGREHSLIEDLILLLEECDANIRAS

Take `CCc1cc(C(=O)N[C@H]2CCN(S(=O)(=O)N3CCC(N)CC3)[C@@H](C)C2)no1` [compound 793, N-((2S,4S)-1-((4-aminopiperidin-1-yl)sulfonyl)-2-methylpiperidin-4-yl)-5-ethylisoxazole-3-carboxamide]: the concentration for half-maximal inhibition (IC50) was determined as 26.3 nM in assay [1] and 1.85 nM in assay [2].
Taken in the same sequence, the figures for `O=C(N[C@H]1C[C@H]2CC[C@@H](C1)N2S(=O)(=O)N1CCC(NCCCC(F)(F)F)CC1)c1cc(C2CC2)on1` [compound 794, 5-cyclopropyl-N-((1R,3r,5S)-8-((4-((4,4,4-trifluorobutyl)amino)piperidin-1-yl)sulfonyl)-8-azabicyclo[3.2.1]octan-3-yl)isoxazole-3-carboxamide] were 34.7 nM and 1.87 nM.
Turning to `C[C@H]1C[C@@H](NC(=O)c2cc(C3CC3)on2)CCN1S(=O)(=O)CC[C@@H]1CCN(C)C1` [compound 795, 5-cyclopropyl-N-((2S,4S)-2-methyl-1-((2-((S)-1-methylpyrrolidin-3-yl)ethyl)sulfonyl)piperidin-4-yl)isoxazole-3-carboxamide], the IC50 in assay [1] came out at 27.6 nM; in assay [2] it was 1.87 nM.
For the compound `CC1(N)CCN(S(=O)(=O)N2[C@@H]3CC[C@H]2C[C@@H](NC(=O)c2cc(C4CC4)on2)C3)CC1` [compound 796, N-((1R,3r,5S)-8-((4-amino-4-methylpiperidin-1-yl)sulfonyl)-8-azabicyclo[3.2.1]octan-3-yl)-5-cyclopropylisoxazole-3-carboxamide], the figures for the half-maximal inhibitory concentration (IC50) in assay [1] and in assay [2] were 40.7 nM and 1.9 nM, respectively.
On the same counts, the results for `CCc1cc(C(=O)N[C@H]2C[C@H]3CC[C@@H](C2)N3S(=O)(=O)CC2CCN(C)CC2)no1` [compound 797, 5-ethyl-N-((1R,3r,5S)-8-(((1-methylpiperidin-4-yl)methyl)sulfonyl)-8-azabicyclo[3.2.1]octan-3-yl)isoxazole-3-carboxamide] are 42.7 nM and 1.9 nM.
Taken in the same sequence, the figures for `CN[C@H]1CC[C@@H](S(=O)(=O)N2[C@@H]3CC[C@H]2C[C@@H](NC(=O)c2cc(C4CC4)on2)C3)CC1` [compound 798, 5-cyclopropyl-N-((1R,3R,5S)-8-(((1s,4S)-4-(methylamino)cyclohexyl)sulfonyl)-8-azabicyclo[3.2.1]octan-3-yl)isoxazole-3-carboxamide] were 30.5 nM and 1.91 nM.
Taken in the same sequence, the figures for `CCc1cc(C(=O)N[C@H]2C[C@H]3CC[C@@H](C2)N3S(=O)(=O)N2CCC(N)CC2)no1` [compound 799, N-((1R,3r,5S)-8-((4-aminopiperidin-1-yl)sulfonyl)-8-azabicyclo[3.2.1]octan-3-yl)-5-ethylisoxazole-3-carboxamide] were 34.6 nM and 2.05 nM.
On to `CC1CN(S(=O)(=O)N2CC[C@H](NC(=O)c3cc(C4CC4)on3)C[C@@H]2C)CCC1N` (stereo partly drawn) [compound 800, N-((2S,4S)-1-((4-amino-3-methylpiperidin-l-yl)sulfonyl)-2-methylpiperidin-4-yl)-5-cyclopropylisoxazole-3-carboxamide], for which the IC50 is 39.7 nM in assay [1] and 2.18 nM in assay [2].
On the same counts, the results for `NC1C2CN(S(=O)(=O)N3[C@@H]4CC[C@H]3C[C@@H](NC(=O)c3cc(C5CC5)on3)C4)CC12` (stereo partly drawn) [compound 801, N-((1R,3r,5S)-8-((6-amino-3-azabicyclo[3.1.0]hexan-3-yl)sulfonyl)-8-azabicyclo[3.2.1]octan-3-yl)-5-cyclopropylisoxazole-3-carboxamide] are 27.7 nM and 2.19 nM.
Taken in the same sequence, the figures for `CNC1CCC(CS(=O)(=O)N2CC[C@H](NC(=O)c3cc(C4CC4)on3)C[C@@H]2C)C1` (stereo partly drawn) [compound 802, 5-cyclopropyl-N-((2S,4S)-2-methyl-1-(((3-(methylamino)cyclopentyl)methyl)sulfonyl)piperidin-4-yl)isoxazole-3-carboxamide] were 27 nM and 2.3 nM.
Taken in the same sequence, the figures for `CC1CC(N)CCN1S(=O)(=O)N1[C@@H]2CC[C@H]1C[C@@H](NC(=O)c1cc(C3CC3)on1)C2` (stereo partly drawn) [compound 803, N-((1R,3r,5S)-8-((4-amino-2-methylpiperidin-1-yl)sulfonyl)-8-azabicyclo[3.2.1]octan-3-yl)-5-cyclopropylisoxazole-3-carboxamide] were 59 nM and 2.31 nM.
With `C[C@H]1C[C@@H](NC(=O)c2cc(C3CC3)on2)CCN1S(=O)(=O)N1CCC2(CCCN2)CC1` [compound 804, N-((2S,4S)-1-((1,8-diazaspiro[4.5]decan-8-yl)sulfonyl)-2-methylpiperidin-4-yl)-5-cyclopropylisoxazole-3-carboxamide], the figures for the half-inhibitory concentration (IC50) in assay [1] and in assay [2] were 60.8 nM and 2.36 nM, respectively.
On the same counts, the results for `CN(C)C1CCN(S(=O)(=O)N2[C@@H]3CC[C@H]2C[C@@H](NC(=O)c2cc(C4CC4)on2)C3)CC1` [compound 805, 5-cyclopropyl-N-((1R,3r,5S)-8-((4-(dimethylamino)piperidin-1-yl)sulfonyl)-8-azabicyclo[3.2.1]octan-3-yl)isoxazole-3-carboxamide] are 53.2 nM and 2.39 nM.
Regarding `CCC[C@H]1C[C@@H](NC(=O)c2cc(C3CC3)on2)CCN1S(=O)(=O)CCCN` [compound 806, N-((2S,4S)-1-((3-aminopropyl)sulfonyl)-2-propylpiperidin-4-yl)-5-cyclopropylisoxazole-3-carboxamide], the IC50 in assay [1] came to 113 nM; in assay [2] it was 2.4 nM.
Taken in the same sequence, the figures for `CN(C)[C@H]1CC[C@H](S(=O)(=O)N2[C@@H]3CC[C@H]2C[C@@H](NC(=O)c2cc(C4CC4)on2)C3)CC1` [compound 807, 5-cyclopropyl-N-((1R,3R,5S)-8-(((1r,4R)-4-(dimethylamino)cyclohexyl)sulfonyl)-8-azabicyclo[3.2.1]octan-3-yl)isoxazole-3-carboxamide] were 85.7 nM and 2.44 nM.
Taken in the same sequence, the figures for `C[C@H]1C[C@@H](NC(=O)c2cc(C3CC3)on2)CCN1S(=O)(=O)N1CCC(NCCO)CC1` [compound 808, 5-cyclopropyl-N-((2S,4S)-1-((4-((2-hydroxyethyl)amino)piperidin-1-yl)sulfonyl)-2-methylpiperidin-4-yl)isoxazole-3-carboxamide] were 36.8 nM and 2.47 nM.
On to `CC(C)CN1CCC(CS(=O)(=O)N2[C@@H]3CC[C@H]2C[C@@H](NC(=O)c2cc(C4CC4)on2)C3)CC1` [compound 809, 5-cyclopropyl-N-((1R,3r,5S)-8-(((1-isobutylpiperidin-4-yl)methyl)sulfonyl)-8-azabicyclo[3.2.1]octan-3-yl)isoxazole-3-carboxamide], for which the concentration for half-maximal inhibition (IC50) is 42.7 nM in assay [1] and 2.49 nM in assay [2].
Taken in the same sequence, the figures for `O=C(N[C@H]1C[C@H]2CC[C@@H](C1)N2S(=O)(=O)N1CCC(NCc2ccccc2)CC1)c1cc(C2CC2)on1` [compound 810, N-((1R,3r,5S)-8-((4-(benzylamino)piperidin-1-yl)sulfonyl)-8-azabicyclo[3.2.1]octan-3-yl)-5-cyclopropylisoxazole-3-carboxamide] were 72.2 nM and 2.53 nM.
On the same counts, the results for `CCc1cc(C(=O)N[C@H]2CCN(S(=O)(=O)c3ccc(C(C)(C)N)cc3)[C@@H](C)C2)no1` [compound 811, N-((2S,4S)-1-((4-(2-aminopropan-2-yl)phenyl)sulfonyl)-2-methylpiperidin-4-yl)-5-ethylisoxazole-3-carboxamide] are 33.6 nM and 2.58 nM.

In general, IC50 refers to the concentration that gives 50% inhibition.
